{"source": "patent US20240285637A1", "about": "“PHOSPHODIESTERASE INHIBITORS FOR THE MITIGATION OF FRAGILE X SYNDROME SYMPTOMS” (THE ROYAL INSTITUTION FOR THE ADVANCEMENT OF …, priority 2021, published 2024)", "key": {"[1]": {"system": "blood vessels (capillaries) in the molecular layer of the cerebellum", "assay": "Acute slice vascular reactivity, cerebellar vermis slices (U46619 constriction, NMDA dilation)", "assay_type": "cell-based, mouse", "design": "effect on the NMDA response (vasodilation) / vasodilation (direct action on blood vessels): dose or concentration left out as unconfirmed", "conditions": "Fmr1 KO cerebellum, pre-incubation with sildenafil"}, "[2]": {"system": "cerebellar stellate cells", "assay": "Voltage-clamp recordings of pharmacologically-isolated GABAR currents, HFS paired with depolarization", "assay_type": "cell-based, mouse", "conditions": "Fmr1 KO stellate cells", "text": "(§1) Cerebellum slice preparation: Mice (P21-35) were anesthetized with isoflurane and immediately decapitated. A block of cerebellar vermis was rapidly dissected from the mouse head and submerged in an ice-cold cutting solution perfused with carbogen gas (95% O2, 5% CO2). Cutting solution contains (in mM): 235 sucrose, 2.5 KCl, 1.25 NaH2PO4, 28 NaHCO3, 0.5 CaCl2, 7 MgCl2, 28 D-glucose, 1 ascorbic acid, and 3 sodium pyruvate (pH 7.4; 305-315 mOsmol/L). The block of vermis was then fastened to a platform, transferred to the slicing chamber and again submerged in ice-cold cutting solution, bubbled with carbogen throughout the remainder of the procedure. Thin slices of cerebellar vermis (300 μm) were obtained with a vibrating tissue sectioner (Leica VT1200; Leica Instruments, Nussloch, Germany). The slices were transferred to oxygenated artificial cerebrospinal fluid (ACSF) and held at room temperature (21° C.-23° C.) for at least 1 h before recordings were performed. […]\n(§2) For extracellular stimulations, thin walled borosilicate glass electrodes (OD 1.65 mm, ID 1.15 mm; King Precision Glass Inc, Claremont, CA, USA) were used with a tip resistance of <3 MΩ when filled with ACSF. […] To minimize variability between responses, the stimulating electrode was positioned 50-100 μm away from the recorded cell. […]"}, "Fmr1 KO mice [3]": {"system": "Fmr1 KO mice", "assay": "Prepulse inhibition of the acoustic startle response", "assay_type": "in vivo, mouse", "conditions": "single dose of sildenafil 7.5 mg/kg i.p.", "text": "Behavior experiments-prepulse inhibition: PPI of the acoustic startle response (ASR) was studied in post-pubertal (PD 56-90) animals using an SR-LAB system (San Diego Instruments, San Diego, CA, USA) comprising two sound-attenuating chambers, each equipped with a cylindrical Plexiglas animal enclosure (length 16 cm, inner diameter 8.2 cm). A speaker positioned 24 cm directly above the enclosure provided the broadband tone pulses. A piezoelectric accelerometer affixed to the animal enclosure frame was used to detect and transduce motion resulting from the animals' startle response. Tone pulse parameters were controlled by a microcomputer using the software package (SR-LAB) and interface assembly that also digitized (0-4095), rectified, and recorded stabilimeter readings. All PPI studies were conducted between 09:00 and 17:00 h. Animals randomly received either saline or sildenafil (7.5 mg/kg i.p.) treatment. […] On the first two trials, the magnitude of the startle response to a 30 ms lasting 120 dB tone was measured. […] ASR was measured at each of the four prepulse intensities on five trials; animals were randomly presented with the startle tone alone during the other 10 trials. […]"}, "[4]": {"system": "cerebellar stellate cells", "assay": "Current-clamp recordings of PF-evoked synaptic events (GABAR plasticity)", "assay_type": "cell-based, mouse", "conditions": "Fmr1 KO stellate cells, 100 μM sildenafil", "text": "as §1, §2"}, "Fmr1 KO mice [5]": {"system": "Fmr1 KO mice", "assay": "Locomotor activity in activity boxes (open field)", "assay_type": "in vivo, mouse", "conditions": "sildenafil 7.5 mg/kg i.p.", "protocol": "Behavior experiments-locomotor activity: The locomotor activity was measured in an environment (activity boxes) novel to the animals, as described previously. Briefly, mice were handled for about 5 minutes once a day for one week before the testing. On the day of testing, animals were brought in their home cages to the anteroom (a room adjacent to the testing room separated by a door) and kept there for 30 minutes before drug or vehicle administration. Animals of both genotypes were randomly divided into two groups. One group received an i.p. injection of sildenafil (7.5 mg/kg; drug dissolved in sterilized PBS with 2% DMSO) and the other group an i.p. injection of the vehicle. One hour after the drug or vehicle administrations, the animals were placed in individual activity boxes (AccuScan Instruments, Inc., Columbus, OH, USA) (L×W×H=17.5 cm×10 cm×26 cm) in a dimly lit testing room where their locomotor activity was monitored for 90 min. The activity boxes were equipped with infrared sensors; beam breaks by the animals were used to assess locomotor activity. Data were collected using the Versamax™ Software (version 4.0, 2004; AccuScan Instruments, Inc.). The total horizontal activity for the whole 90 min session was used in the analysis."}, "[6]": {"system": "cerebellar stellate cells", "assay": "Minimal stimulation protocol, evoked IPSCs before and after HFS (failure rate of GABAergic transmission)", "assay_type": "cell-based, mouse", "conditions": "Fmr1 KO stellate cells"}, "[7]": {"system": "blood vessels in the somatosensory cortex", "assay": "Acute slice vascular reactivity, somatosensory cortex", "assay_type": "cell-based, mouse", "design": "effect on the NMDA response (vasodilation) / vasodilation (direct action on blood vessels): dose or concentration left out as unconfirmed", "conditions": "Fmr1 KO cortex, pre-incubation with sildenafil, at least some blood vessels"}, "[8]": {"system": "cerebellar stellate cells", "assay": "Cell-attached recordings of action currents (intrinsic plasticity) after HFS of parallel fibers", "assay_type": "cell-based, mouse", "conditions": "Fmr1 KO stellate cells, pre-treatment with 100 μM sildenafil", "text": "as §1, §2"}}, "note": "Entries after “also recorded” stand apart in the source; their conditions may differ.", "data": [{"smiles": "CCCc1nn(C)c2c(=O)[nH]c(-c3cc(S(=O)(=O)N4CCN(C)CC4)ccc3OCC)nc12", "note": "[sildenafil]", "values": [{"measurement": "effect on the NMDA response (vasodilation)", "setting": "[1]", "value": "little or no effect"}, {"measurement": "GABAR plasticity (NMDAR-mediated inhibitory synapse strengthening), voltage-clamp", "setting": "[2]; 100 μM sildenafil", "value": "rescued the complete loss of GABAR plasticity"}, {"measurement": "baseline properties of the cells", "setting": "[2]; current-clamp and voltage-clamp, data not shown", "value": "did not, however, affect baseline properties"}, {"measurement": "deficits in prepulse inhibition (PPI)", "setting": "Fmr1 KO mice [3]", "value": "fully correct deficits; also recorded: rescued"}, {"measurement": "GABAR plasticity (NMDAR-mediated inhibitory synapse strengthening), current-clamp", "setting": "[4]", "value": "rescued the complete loss of GABAR plasticity"}, {"measurement": "enhanced locomotor activity / deficits in locomotion", "setting": "Fmr1 KO mice [5]", "value": "normalized the enhanced locomotor activity; also recorded: rescued"}, {"measurement": "failure rate (mean)", "setting": "[6]; 10−100 μM sildenafil in the patch electrode, baseline, n=5", "value": "90.9+/−3.57%"}, {"measurement": "failure rate, failed events (mean)", "setting": "[6]; 10−100 μM sildenafil in the patch electrode, post-HFS, n=5", "value": "59.44+/−8.36%"}, {"measurement": "iLTP following HFS of parallel fibers", "setting": "[6]; sildenafil in the patch electrode", "value": "remarkable restoration of iLTP"}, {"measurement": "effect on the NMDA response (vasodilation)", "setting": "[7]", "value": "rescue some of the deficits"}, {"measurement": "long-term increase in baseline firing rates following HFS of PFs", "setting": "[8]", "value": "restored the long-term increase in baseline firing rates"}]}]}
